Literature values, collected in US9339504B2, “Orally disintegrating tablet compositions of lamotrigine” (ADARE Pharmaceuticals, Inc., priority 2007, dated 2016).
Values after ≈ are worked out from the molar mass of the structure shown. Like-named read-outs stand apart in the source and are kept apart here.

solubility in 0.01N HCl (0.01N HCl, 25° C.): ~3000 µg/mL (≈ 11.7 mM)
solubility in 0.1N HCl (0.1N HCl, 25° C.): ~4000 µg/mL (≈ 15.6 mM)
solubility in water (25° C.): ~170 µg/mL (≈ 0.664 mM)
solubility in water (37° C.): ~570 µg/mL (≈ 2.23 mM)
SMILES: Nc1nnc(-c2cccc(Cl)c2Cl)c(N)n1 [Lamotrigine, 3,5-diamino-6-(2,3,-dichlorophenyl)-1,2,4-triazine]
